Target: T1, fMet-Leu-Phe receptor (Homo sapiens, UniProt P21462)
T1 sequence (P21462 whole entry): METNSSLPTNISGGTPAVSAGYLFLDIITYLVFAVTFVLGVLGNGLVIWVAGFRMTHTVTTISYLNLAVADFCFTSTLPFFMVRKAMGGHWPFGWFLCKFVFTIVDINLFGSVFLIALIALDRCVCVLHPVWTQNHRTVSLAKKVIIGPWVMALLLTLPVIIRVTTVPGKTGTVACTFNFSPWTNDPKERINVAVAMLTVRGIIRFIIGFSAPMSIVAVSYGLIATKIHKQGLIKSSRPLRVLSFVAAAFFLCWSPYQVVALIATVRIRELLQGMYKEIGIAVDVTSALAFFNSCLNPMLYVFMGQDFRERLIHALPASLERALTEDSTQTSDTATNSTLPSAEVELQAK
Assay: formyl peptide receptor binders – dose response (AID 519)

| Structure (SMILES) | IC50 [µM] |
| --- | --- |
| COc1cc(-n2nc(C)c3c2OC(=N)C(C#N)C3c2ccccc2)c(Cl)c(Br)c1O (centres undefined) [6-amino-1-(3-bromo-2-chloro-4-hydroxy-5-methoxyphenyl)-3-methyl-4-phenyl-1,4-dihydropyrano[2,3-c]pyrazole-5-carbonitrile] | 32.5 |
| O=C1C(=O)N(Cc2ccco2)C(c2ccccc2)C1C(=O)c1cccs1 (centres undefined) [1-(2-furanylmethyl)-4-hydroxy-3-[oxo(thiophen-2-yl)methyl]-2-phenyl-2H-pyrrol-5-one] | 35.2 |
| O=C1C(=O)N(c2ncccn2)C(c2cccc(Cl)c2)C1C(=O)c1ccco1 (centres undefined) [2-(3-chlorophenyl)-3-(furan-2-carbonyl)-4-hydroxy-1-pyrimidin-2-yl-2H-pyrrol-5-one] | > 66.7 |
| COc1ccc(C2C(C(=O)c3ccco3)C(=O)C(=O)N2Cc2cccnc2)cc1OC (centres undefined) [2-(3,4-dimethoxyphenyl)-3-(furan-2-carbonyl)-4-hydroxy-1-(pyridin-3-ylmethyl)-2H-pyrrol-5-one] | > 66.7 |
| COC(=O)c1ccc(C2C(C(=O)c3ccc(OC)cc3)C(=O)C(=O)N2Cc2ccco2)cc1 (centres undefined) [4-[(3Z)-1-(2-furanylmethyl)-3-[hydroxy-(4-methoxyphenyl)methylidene]-4,5-dioxo-2-pyrrolidinyl]benzoic acid methyl ester] | 43 |
| COCCN1C(=O)C(=O)C(C(=O)c2ccco2)C1c1cccc(Oc2ccccc2)c1 (centres undefined) [3-(furan-2-carbonyl)-4-hydroxy-1-(2-methoxyethyl)-2-(3-phenoxyphenyl)-2H-pyrrol-5-one] | 56 |
| CSCCC1c2c(-c3cccs3)n[nH]c2OC(=N)C1C#N (centres undefined) [6-azanyl-4-(2-methylsulfanylethyl)-3-thiophen-2-yl-2,4-dihydropyrano[2,3-c]pyrazole-5-carbonitrile] | > 66.7 |
| CCCCc1c(O)n(-c2ccccc2)n(-c2ccccc2)c1=O [3,5-Dioxo-1,2-diphenyl-4-n-butylpyrazolidine] | 5.3 |
| O=c1c(C23CC4CC(CC(C4)C2)C3)c(O)n(-c2ccccc2)n1-c1ccccc1 [MLS000526352] | 11.5 |
| Cc1ccc(C(=O)C2C(=O)C(=O)N(CC(C)O)C2c2ccc(N(C)C)cc2)cc1 (centres undefined) [(4E)-5-[4-(dimethylamino)phenyl]-1-(2-hydroxypropyl)-4-[hydroxy(p-tolyl)methylene]pyrrolidine-2,3-quinone] | > 66.7 |
| COc1cccc(C2C(C(=O)c3ccc(OC)c(OC)c3)C(=O)C(=O)N2c2cc(C)on2)c1 (centres undefined) [(4E)-4-[(3,4-dimethoxyphenyl)-hydroxy-methylene]-5-(3-methoxyphenyl)-1-(5-methylisoxazol-3-yl)pyrrolidine-2,3-quinone] | > 66.7 |
| CCOc1ccc(C(=O)C2C(=O)C(=O)N(c3nc(C)c(C)s3)C2c2ccco2)cc1 (centres undefined) [(4Z)-1-(4,5-dimethyl-1,3-thiazol-2-yl)-4-[(4-ethoxyphenyl)-hydroxymethylidene]-5-(furan-2-yl)pyrrolidine-2,3-dione] | 57.7 |
| COc1ccccc1C1C(C(=O)c2ccccc2)C(=O)C(=O)N1CC(C)O (centres undefined) [(4Z)-4-[hydroxy(phenyl)methylene]-1-(2-hydroxypropyl)-5-(2-methoxyphenyl)pyrrolidine-2,3-quinone] | 24.6 |
| COc1ccc(OC)c(C2C(C(=O)c3cc4ccccc4o3)C(=O)C(=O)N2c2cc(C)on2)c1 (centres undefined) [3-(1-benzofuran-2-carbonyl)-2-(2,5-dimethoxyphenyl)-4-hydroxy-1-(5-methyl-1,2-oxazol-3-yl)-2H-pyrrol-5-one] | 36.6 |
| COc1ccc(C(=O)C2C(=O)C(=O)N(Cc3ccco3)C2c2ccc(OC)cc2OC)cc1 (centres undefined) [(4E)-5-(2,4-dimethoxyphenyl)-1-(2-furanylmethyl)-4-[hydroxy-(4-methoxyphenyl)methylidene]pyrrolidine-2,3-dione] | > 66.7 |
| COc1cccc(OC)c1C(=O)C(C#N)c1nc2ccccc2[nH]1 (centres undefined) [SMR000024183] | > 66.7 |
| COCCCN1C(=O)C(=O)C(C(=O)c2ccc3c(c2)CC(C)O3)C1c1cccnc1 (centres undefined) [(4E)-1-(3-methoxypropyl)-4-[(2-methyl-2,3-dihydro-1-benzofuran-5-yl)-oxidanyl-methylidene]-5-pyridin-3-yl-pyrrolidine-2,3-dione] | > 66.7 |
| O=C1C(=O)N(CC2CCCO2)C(c2cccnc2)C1C(=O)c1ccco1 (centres undefined) [3-(furan-2-carbonyl)-4-hydroxy-1-(oxolan-2-ylmethyl)-2-pyridin-3-yl-2H-pyrrol-5-one] | 54.8 |

Next, values leading:

| IC50 [µM] | Structure (SMILES) |
| --- | --- |
| 12.4 | O=C1C(=O)N(Cc2ccccc2)C(c2ccco2)C1C(=O)c1ccco1 (centres undefined) [1-Benzyl-4-(furan-2-carbonyl)-5-furan-2-yl-3-hydroxy-1,5-dihydro-pyrrol-2-one] |
| 11.6 | Cc1ccc(C2C(C(=O)c3ccc(Cl)cc3)C(=O)C(=O)N2CC2CCCO2)o1 (centres undefined) [(4Z)-4-[(4-chlorophenyl)-hydroxy-methylene]-5-(5-methyl-2-furyl)-1-(tetrahydrofurfuryl)pyrrolidine-2,3-quinone] |
| > 66.7 | Cc1ccc(C(=O)C2C(=O)C(=O)N(CCN3CCOCC3)C2c2cccnc2)cc1 (centres undefined) [(4Z)-4-[(4-methylphenyl)-oxidanyl-methylidene]-1-(2-morpholin-4-ylethyl)-5-pyridin-3-yl-pyrrolidine-2,3-dione] |
| > 66.7 | Cc1ccc(C(=O)C2C(=O)C(=O)N(Cc3ccccc3)C2c2cccnc2)o1 (centres undefined) [1-benzyl-3-hydroxy-4-[(5-methylfuran-2-yl)carbonyl]-5-(pyridin-3-yl)-2,5-dihydro-1H-pyrrol-2-one] |
| > 66.7 | COCCCN1C(=O)C(=O)C(C(=O)c2ccc(OC)cc2C)C1c1cccnc1 (centres undefined) [(4E)-4-[(4-methoxy-2-methyl-phenyl)-oxidanyl-methylidene]-1-(3-methoxypropyl)-5-pyridin-3-yl-pyrrolidine-2,3-dione] |
| 26.4 | COc1ccc(OC)c(C2C(C(=O)c3ccco3)C(=O)C(=O)N2CCCN2CCOCC2)c1 (centres undefined) [2-(2,5-dimethoxyphenyl)-3-(furan-2-carbonyl)-4-hydroxy-1-(3-morpholin-4-ylpropyl)-2H-pyrrol-5-one] |
| 9.7 | COC(=O)c1[nH]c(C)c(C(=O)C2C(=O)C(=O)N(CCCN3CCOCC3)C2c2ccccn2)c1C (centres undefined) [methyl 4-{[4-hydroxy-1-[3-(4-morpholinyl)propyl]-5-oxo-2-(2-pyridinyl)-2,5-dihydro-1H-pyrrol-3-yl]carbonyl}-3,5-dimethyl-1H-pyrrole-2-carboxylate] |
| 13.5 | CCOc1cccc(C(=O)C2C(=O)C(=O)N(CCOC)C2c2ccc(C)o2)c1 (centres undefined) [(4Z)-4-[(3-ethoxyphenyl)-hydroxymethylidene]-1-(2-methoxyethyl)-5-(5-methyl-2-furanyl)pyrrolidine-2,3-dione] |
| 36.9 | COc1ccc(C2C(C(=O)c3ccco3)C(=O)C(=O)N2CCc2ccccc2)cc1OC (centres undefined) [2-(3,4-dimethoxyphenyl)-3-(furan-2-carbonyl)-4-hydroxy-1-(2-phenylethyl)-2H-pyrrol-5-one] |
| 23.2 | Cc1ccc(C2C(C(=O)c3cnn(-c4ccccc4)c3C)C(=O)C(=O)N2CCN2CCOCC2)o1 (centres undefined) [(4Z)-4-[hydroxy-(5-methyl-1-phenyl-4-pyrazolyl)methylidene]-5-(5-methyl-2-furanyl)-1-[2-(4-morpholinyl)ethyl]pyrrolidine-2,3-dione] |
| > 66.7 | Cc1ccc(C)c(C(=O)C2C(=O)C(=O)N(CCCn3ccnc3)C2c2ccncc2)c1 (centres undefined) [(4E)-4-[(2,5-dimethylphenyl)-hydroxy-methylene]-1-(3-imidazol-1-ylpropyl)-5-(4-pyridyl)pyrrolidine-2,3-quinone] |

From BindingDB's records for doi:10.7270/Q2J67FB5 (Nmmlsc, 2007)
